Measured values reported in patent publication US20230136600A1, “Method and device for screening antigen epitope polypeptide” (priority 2020, published 2023).

System: Balb/c mice
Test: Polypeptide chip-based vaccine immunogenicity scoring system
Format: in vivo
Set-up: key to A2: whether the 95 percentile of the last sampling is increased compared with the end point: Y = rise; N = no rise
Details: for A: 95 percentile grouping number score / B: Mouse performance score: total score = 5; for C1: #A timing-sequence response peptide fragment set / C2: #B vaccine specificity peptide fragment set / C3: Intersection of A and B / C4: Percentage of the intersection in set B / C: Timing-sequence response and specificity score: value of the whole mix
Method: Data distribution and characteristics thereof are analyzed based on a) and b), a polypeptide chip-based vaccine immunogenicity scoring system (referring to Table 7) is designed.
10 combinations are evaluated by the polypeptide chip-based vaccine immunogenicity scoring system. An evaluation method is consistent with that in Embodiment II. Evaluation results are show in the table below.
This embodiment is consistent with Embodiment II. Each combination is evaluated by the polypeptide chip-based vaccine immunogenicity scoring system. Evaluation results are show in the table below.

[1] = Embodiment III, polypeptide-KLH
[2] = Embodiment III, polypeptide-KLH, Mix1-10
[3] = Embodiment III, polypeptide-KLH, A*3 + B*2 + C*1
[4] = adjuvant AddaVax, 7 peptides co-immunized in mice
[5] = adjuvant Adju-Phos, 7 peptides co-immunized in mice
[6] = adjuvant Alhydrogel, 7 peptides co-immunized in mice
[7] = adjuvant Imjet Alumn, 7 peptides co-immunized in mice
[8] = adjuvant MA103A, 7 peptides co-immunized in mice
[9] = adjuvant MA103B, 7 peptides co-immunized in mice

KEIDRLNEV [SEQ ID NO:12]
B1: D 0-D 14 95 percentile rise in the number of mice [1]: 3 | B2: D 0-D 21 95 percentile rise in the number of mice [1]: 3 | B3: D 14-D 21 95 percentile rise in the number of mice [1]: 1 | B4: D 21-D 28 95 percentile rise in the number of mice [1]: 0 | A1: difference between a highest median and a D 0 median (95 percentile) [2]: 0.10 | A2: whether the 95 percentile of the last sampling is increased compared with the end point [2]: N | Total single peptide [3]: 15.9 | A: 95 percentile grouping number score [1]: 4 | B: Mouse performance score [1]: 1.7 | C1: #A timing-sequence response peptide fragment set [1]: 257 | C2: #B vaccine specificity peptide fragment set [1]: 682 | C3: Intersection of A and B [1]: 3 | C4: Percentage of the intersection in set B [1]: 0.440 | C: Timing-sequence response and specificity score [1]: 0.5

RLFRKSNLK (SARS-CoV-2) [SEQ ID NO:35]
B1: D 0-D 14 95 percentile rise in the number of mice [1]: 3 | B2: D 0-D 21 95 percentile rise in the number of mice [1]: 3 | B3: D 14-D 21 95 percentile rise in the number of mice [1]: 2 | B4: D 21-D 28 95 percentile rise in the number of mice [1]: 0 | A1: difference between a highest median and a D 0 median (95 percentile) [2]: 0.10 | A2: whether the 95 percentile of the last sampling is increased compared with the end point [2]: N | Total single peptide [3]: 16.3 | A: 95 percentile grouping number score [1]: 4 | B: Mouse performance score [1]: 1.9 | C1: #A timing-sequence response peptide fragment set [1]: 352 | C2: #B vaccine specificity peptide fragment set [1]: 541 | C3: Intersection of A and B [1]: 1 | C4: Percentage of the intersection in set B [1]: 0.185 | C: Timing-sequence response and specificity score [1]: 0.5

LPFNDGVYF (SARS-CoV-2) [SEQ ID NO:14]
B1: D 0-D 14 95 percentile rise in the number of mice [1]: 3 | B2: D 0-D 21 95 percentile rise in the number of mice [1]: 2 | B3: D 14-D 21 95 percentile rise in the number of mice [1]: 2 | B4: D 21-D 28 95 percentile rise in the number of mice [1]: 3 | A1: difference between a highest median and a D 0 median (95 percentile) [2]: 0.09 | A2: whether the 95 percentile of the last sampling is increased compared with the end point [2]: Y | Total single peptide [3]: 17.1 | A: 95 percentile grouping number score [1]: 4 | B: Mouse performance score [1]: 2.3 | C1: #A timing-sequence response peptide fragment set [1]: 133 | C2: #B vaccine specificity peptide fragment set [1]: 431 | C3: Intersection of A and B [1]: 1 | C4: Percentage of the intersection in set B [1]: 0.232 | C: Timing-sequence response and specificity score [1]: 0.5

NLDSKVGGNYNY [SEQ ID NO:15]
B1: D 0-D 14 95 percentile rise in the number of mice [1]: 3 | B2: D 0-D 21 95 percentile rise in the number of mice [1]: 3 | B3: D 14-D 21 95 percentile rise in the number of mice [1]: 1 | B4: D 21-D 28 95 percentile rise in the number of mice [1]: 0 | A1: difference between a highest median and a D 0 median (95 percentile) [2]: 0.15 | A2: whether the 95 percentile of the last sampling is increased compared with the end point [2]: N | Total single peptide [3]: 17.4 | A: 95 percentile grouping number score [1]: 4.5 | B: Mouse performance score [1]: 1.7 | C1: #A timing-sequence response peptide fragment set [1]: 257 | C2: #B vaccine specificity peptide fragment set [1]: 682 | C3: Intersection of A and B [1]: 3 | C4: Percentage of the intersection in set B [1]: 0.440 | C: Timing-sequence response and specificity score [1]: 0.5

GVYYPDKVFR (SARS-CoV-2) [SEQ ID NO:7]
A2: whether the 95 percentile of the last sampling is increased compared with the end point (Embodiment II, Combination 2): N | B1: D 0-D 14 95 percentile rise in the number of mice (Embodiment II, Combination 2): 5 | B2: D 0-D 21 95 percentile rise in the number of mice (Embodiment II, Combination 2): 0 | B3: D 14-D 21 95 percentile rise in the number of mice (Embodiment II, Combination 2): 0 | B4: D 21-D 28 95 percentile rise in the number of mice (Embodiment II, Combination 2): 1 | Total single peptide (Embodiment II, Combination 2, A*3 + B*2 + C*1): 18.9 | A: 95 percentile grouping number score (Embodiment II, Combination 2): 5 | B: Mouse performance score (Embodiment II, Combination 2): 1.7 | A1: difference between a highest median and a D 0 median (95 percentile) (Embodiment II, mice immunized with Combination 2): 0.4 | B1: D 0-D 14 95 percentile rise in the number of mice [1]: 3 | B2: D 0-D 21 95 percentile rise in the number of mice [1]: 3 | B3: D 14-D 21 95 percentile rise in the number of mice [1]: 0 | B4: D 21-D 28 95 percentile rise in the number of mice [1]: 0 | A1: difference between a highest median and a D 0 median (95 percentile) [2]: 0.09 | A2: whether the 95 percentile of the last sampling is increased compared with the end point [2]: N | Total single peptide [3]: 14 | A: 95 percentile grouping number score [1]: 3.5 | B: Mouse performance score [1]: 1.5 | C1: #A timing-sequence response peptide fragment set [1]: 145 | C2: #B vaccine specificity peptide fragment set [1]: 529 | C3: Intersection of A and B [1]: 1 | C4: Percentage of the intersection in set B [1]: 0.189 | C: Timing-sequence response and specificity score [1]: 0.5

ALNTPKDH (SARS-CoV-2) [SEQ ID NO:19]
B1: D 0-D 14 95 percentile rise in the number of mice [1]: 3 | B2: D 0-D 21 95 percentile rise in the number of mice [1]: 3 | B3: D 14-D 21 95 percentile rise in the number of mice [1]: 0 | B4: D 21-D 28 95 percentile rise in the number of mice [1]: 1 | A1: difference between a highest median and a D 0 median (95 percentile) [2]: 0.12 | A2: whether the 95 percentile of the last sampling is increased compared with the end point [2]: N | Total single peptide [3]: 17.9 | A: 95 percentile grouping number score [1]: 4.5 | B: Mouse performance score [1]: 1.7 | C1: #A timing-sequence response peptide fragment set [1]: 288 | C2: #B vaccine specificity peptide fragment set [1]: 268 | C3: Intersection of A and B [1]: 4 | C4: Percentage of the intersection in set B [1]: 1.493 | C: Timing-sequence response and specificity score [1]: 1

QELGKYEQY (SARS-CoV-2) [SEQ ID NO:38]
B1: D 0-D 14 95 percentile rise in the number of mice [1]: 3 | B2: D 0-D 21 95 percentile rise in the number of mice [1]: 3 | B3: D 14-D 21 95 percentile rise in the number of mice [1]: 2 | B4: D 21-D 28 95 percentile rise in the number of mice [1]: 1 | A1: difference between a highest median and a D 0 median (95 percentile) [2]: 0.10 | A2: whether the 95 percentile of the last sampling is increased compared with the end point [2]: Y | Total single peptide [3]: 18.2 | A: 95 percentile grouping number score [1]: 4.5 | B: Mouse performance score [1]: 2.1 | C1: #A timing-sequence response peptide fragment set [1]: 352 | C2: #B vaccine specificity peptide fragment set [1]: 541 | C3: Intersection of A and B [1]: 1 | C4: Percentage of the intersection in set B [1]: 0.185 | C: Timing-sequence response and specificity score [1]: 0.5

SVYAWNRKR (SARS-CoV-2) [SEQ ID NO:3]
A2: whether the 95 percentile of the last sampling is increased compared with the end point (Embodiment II, Combination 1): N | B1: D 0-D 14 95 percentile rise in the number of mice (Embodiment II, Combination 1): 5 | B2: D 0-D 21 95 percentile rise in the number of mice (Embodiment II, Combination 1): 5 | B3: D 14-D 21 95 percentile rise in the number of mice (Embodiment II, Combination 1): 1 | B4: D 21-D 28 95 percentile rise in the number of mice (Embodiment II, Combination 1): 2 | Total single peptide (Embodiment II, Combination 1, A*3 + B*2 + C*1): 10.7 | A: 95 percentile grouping number score (Embodiment II, Combination 1): 1 | B: Mouse performance score (Embodiment II, Combination 1): 3.6 | A1: difference between a highest median and a D 0 median (95 percentile) (Embodiment II, mice immunized with Combination 1): 0.05 | B1: D 0-D 14 95 percentile rise in the number of mice [1]: 3 | B2: D 0-D 21 95 percentile rise in the number of mice [1]: 3 | B3: D 14-D 21 95 percentile rise in the number of mice [1]: 2 | B4: D 21-D 28 95 percentile rise in the number of mice [1]: 1 | A1: difference between a highest median and a D 0 median (95 percentile) [2]: 0.13 | A2: whether the 95 percentile of the last sampling is increased compared with the end point [2]: N | Total single peptide [3]: 18.7 | A: 95 percentile grouping number score [1]: 4.5 | B: Mouse performance score [1]: 2.1 | C1: #A timing-sequence response peptide fragment set [1]: 823 | C2: #B vaccine specificity peptide fragment set [1]: 398 | C3: Intersection of A and B [1]: 7 | C4: Percentage of the intersection in set B [1]: 1.759 | C: Timing-sequence response and specificity score [1]: 1 | 1) 95 percentile grouping number A [4]: 4 | 1) 95 percentile grouping number A1 [4]: 0.05 | 2) Mouse performance B [4]: 3.5 | 2) Mouse performance B1 [4]: 3 | 2) Mouse performance B2 [4]: 5 | 2) Mouse performance B3 [4]: 4 | 3) Timing-sequence response and specificity C [4]: 0 | 3) Timing-sequence response and specificity C1 [4]: 237 | 3) Timing-sequence response and specificity C2 [4]: 1244 | 3) Timing-sequence response and specificity C3 [4]: 0 | 3) Timing-sequence response and specificity C4 [4]: 0.000 | Total single peptide [4]: 19 | 1) 95 percentile grouping number A [5]: 3.5 | 1) 95 percentile grouping number A1 [5]: 0.05 | 2) Mouse performance B [5]: 3 | 2) Mouse performance B1 [5]: 4 | 2) Mouse performance B2 [5]: 5 | 2) Mouse performance B3 [5]: 2 | 3) Timing-sequence response and specificity C [5]: 0 | 3) Timing-sequence response and specificity C1 [5]: 203 | 3) Timing-sequence response and specificity C2 [5]: 1244 | 3) Timing-sequence response and specificity C3 [5]: 0 | 3) Timing-sequence response and specificity C4 [5]: 0.000 | Total single peptide [5]: 16.5 | 1) 95 percentile grouping number A [6]: 1 | 1) 95 percentile grouping number A1 [6]: 0.012 | 2) Mouse performance B [6]: 0.8 | 2) Mouse performance B1 [6]: 2 | 2) Mouse performance B2 [6]: 1 | 2) Mouse performance B3 [6]: 0 | 3) Timing-sequence response and specificity C [6]: 1 | 3) Timing-sequence response and specificity C1 [6]: 123 | 3) Timing-sequence response and specificity C2 [6]: 1244 | 3) Timing-sequence response and specificity C3 [6]: 2 | 3) Timing-sequence response and specificity C4 [6]: 0.161 | Total single peptide [6]: 5.1 | 1) 95 percentile grouping number A [7]: 5 | 1) 95 percentile grouping number A1 [7]: 0.09 | 2) Mouse performance B [7]: 2.7 | 2) Mouse performance B1 [7]: 5 | 2) Mouse performance B2 [7]: 4 | 2) Mouse performance B3 [7]: 1 | 3) Timing-sequence response and specificity C [7]: 1 | 3) Timing-sequence response and specificity C1 [7]: 100 | 3) Timing-sequence response and specificity C2 [7]: 1244 | 3) Timing-sequence response and specificity C3 [7]: 3 | 3) Timing-sequence response and specificity C4 [7]: 0.241 | Total single peptide [7]: 20.9 | 1) 95 percentile grouping number A [8]: 5 | 1) 95 percentile grouping number A1 [8]: 0.08 | 2) Mouse performance B [8]: 2.9 | 2) Mouse performance B1 [8]: 5 | 2) Mouse performance B2 [8]: 5 | 2) Mouse performance B3 [8]: 1 | 3) Timing-sequence response and specificity C [8]: 1 | 3) Timing-sequence response and specificity C1 [8]: 260 | 3) Timing-sequence response and specificity C2 [8]: 1244 | 3) Timing-sequence response and specificity C3 [8]: 3 | 3) Timing-sequence response and specificity C4 [8]: 0.241 | Total single peptide [8]: 21.3 | 1) 95 percentile grouping number A [9]: 3.5 | 1) 95 percentile grouping number A1 [9]: 0.05 | 2) Mouse performance B [9]: 2.9 | 2) Mouse performance B1 [9]: 5 | 2) Mouse performance B2 [9]: 5 | 2) Mouse performance B3 [9]: 1 | 3) Timing-sequence response and specificity C [9]: 0 | 3) Timing-sequence response and specificity C1 [9]: 153 | 3) Timing-sequence response and specificity C2 [9]: 1244 | 3) Timing-sequence response and specificity C3 [9]: 0 | 3) Timing-sequence response and specificity C4 [9]: 0.000 | Total single peptide [9]: 16.3
